For data set [1], the system named is RAW264.7. Description: Antiinflammatory activity in mouse RAW264.7 cells assessed as inhibition of LPS-induced NO production after 24 hrs by Griess method. The class given is functional, cell-based. The note with it: RAW264.7, 24 h. (Nitrite, measured by Griess reagent, commonly stands in for NO production.)
Data set [2] can be described thus: Cytotoxicity against mouse RAW264.7 cells assessed as cell viability at 100 uM after 24 hrs by MTT assay. In kind it is cell-based. The settings on record: read-out: Activity. Background: Tetrazolium assays rely on reduction of a dye to a coloured formazan, in cell work by metabolically active cells.

Turning to `C[C@@]12CCC(=O)[C@@](C)(CO)[C@H]1CCC(CO)=C2CCC1=CCOC1=O`, the IC50 (as a rule, the point on the concentration scale where inhibition reaches its midpoint) in data set [1] came to 79 µM. Moreover, in data set [2], the viability at 24 h, 100 µM was 101%.

Consider `C=C1CC[C@H]2[C@@](C)(C=CC(=O)[C@@]2(C)CO)[C@@H]1CCC1=CCOC1=O`, for which the IC50 in data set [1] stood at 10 µM. Besides, the viability at 24 h, 100 µM in data set [2] was 100%.

For `C=C1CC[C@H]2[C@@](C)(C[C@H](O)C(=O)[C@@]2(C)CO)[C@@H]1CCC1=CCOC1=O`, the IC50 in data set [1] turned out to be 12.2 µM. Further, the viability at 24 h, 100 µM in data set [2] was found to be 103%.

Turning to `C[C@]1(CO)[C@H]2CC[C@@]3(CO3)[C@@H](CCC3=CCOC3=O)[C@]2(C)CC[C@H]1O`, the IC50 in data set [1] was more than 100 µM. Moreover, in data set [2], the viability at 24 h, 100 µM was 88.4%.

With `C=C1CC[C@H]2[C@@](C)(CCC(=O)[C@@]2(C)CO)[C@@H]1CCC1=CCOC1=O`, the IC50 in data set [1] is 10.1 µM. The viability at 24 h, 100 µM in data set [2] worked out at 110%.

For the compound `C[C@@]12CCC(=O)[C@@](C)(CO)[C@H]1CC[C@@]1(CO1)[C@H]2CCC1=CCOC1=O`, the 50% inhibitory concentration (IC50) in data set [1] was determined as 89.2 µM. Moreover, the viability at 24 h, 100 µM in data set [2] amounted to 63.1%.

In the case of `C=C1CC[C@@H]2[C@](C)(CO)[C@H](O)CC[C@@]2(C)[C@@H]1CCC1=CCOC1=O` [DEOXYANDROGRAPHOLIDE], in data set [1], the half-inhibitory concentration (IC50) came out at 21 µM. Also, the viability at 24 h, 100 µM in data set [2] amounted to 100%.

`C[C@@]1(CO)[C@H](O)CC[C@@]2(C)C(CCC3=CCOC3=O)=C(C=O)CC[C@H]12`: in data set [1], the IC50 was more than 100 µM. Also, the viability at 24 h, 100 µM in data set [2] was 99.7%.

In the case of `C[C@]1(CO)[C@H]2CC=C(CO)[C@@H](/C=C/C3=CCOC3=O)[C@]2(C)CC[C@H]1O`, in data set [1], the IC50 was 39.1 µM. Moreover, the viability at 24 h, 100 µM in data set [2] is 106%.

Turning to `C=C1CC[C@H]2[C@@](C)(CCC(=O)[C@@]2(C)CO)[C@@H]1/C=C/C1=CCOC1=O`, in data set [1], the 50% inhibitory concentration (IC50) was found to be 75.3 µM. Moreover, the viability at 24 h, 100 µM in data set [2] amounted to 104%.

Consider `CO[C@]1(CO)CC[C@@H]2[C@](C)(CO)[C@H](O)CC[C@@]2(C)[C@@H]1CCC1=CCOC1=O`, for which the IC50 in data set [1] is more than 100 µM. In data set [2], the viability at 24 h, 100 µM turned out to be 100%.

Regarding `C=C1CC[C@@H]2[C@](C)(CO)[C@H](O)CC[C@@]2(C)[C@]1(O)/C=C/C1=CCOC1=O`, the half-inhibitory concentration (IC50) in data set [1] was determined as 97.2 µM. Further, the viability at 24 h, 100 µM in data set [2] was found to be 98.6%.

For the compound `C=C1CC[C@@H]2[C@](C)(COC3O[C@H](CO)[C@@H](O)[C@H](O)[C@H]3O)CCC[C@@]2(C)[C@@H]1CCC1=CCOC1=O` (some centres not stated), the IC50 in data set [1] was more than 100 µM. For the same compound, the viability at 24 h, 100 µM in data set [2] came to 81.4%.

As for `C=C1[C@@H](CCC2=CCOC2=O)[C@]2(C)CC[C@@H](O)[C@@](C)(CO)[C@H]2C[C@@H]1O`, the IC50 in data set [1] was more than 100 µM. In addition, the viability at 24 h, 100 µM in data set [2] was 89.1%.

In the case of `C=C1CC[C@@H]2[C@](C)(CO)C(=O)CC[C@@]2(C)[C@]1(O)CCC1=CCOC1=O`, in data set [1], the IC50 was found to be 28.4 µM. Moreover, the viability at 24 h, 100 µM in data set [2] came to 87.5%.

Turning to `C=C1CC[C@@H]2[C@](C)(CO)[C@H](O)CC[C@@]2(C)[C@]1(O)CCC1=CCOC1=O`, the IC50 in data set [1] is more than 100 µM. For the same compound, in data set [2], the viability at 24 h, 100 µM amounted to 86%.

Take `C=C1CC[C@H]2[C@@](C)([C@H](O)CC(=O)[C@@]2(C)CO)[C@@H]1CCC1=CCOC1=O`: the IC50 in data set [1] is 61.9 µM. Besides, the viability at 24 h, 100 µM in data set [2] worked out at 100%.

Take `C=C1CC[C@@H]2[C@](C)(CO)[C@H](O)CC[C@@]2(C)[C@@H]1C/C=C(/C(=O)O)[C@@H](O)CO`: the IC50 in data set [1] is more than 100 µM. Further, the viability at 24 h, 100 µM in data set [2] was found to be 104%.

Turning to `C=C1[C@H](O)C[C@H]2[C@@](C)(CCC(=O)[C@@]2(C)CO)[C@@H]1CCC1=CCOC1=O`, in data set [1], the IC50 was 58.2 µM. For the same compound, in data set [2], the viability at 24 h, 100 µM was 102%.

In the case of `C=C1CC[C@@H]2[C@](C)(CO)[C@H](O)C[C@@H](O)[C@@]2(C)[C@@H]1CCC1=CCOC1=O`, in data set [1], the IC50 is more than 100 µM. In addition, the viability at 24 h, 100 µM in data set [2] was 101%.

For the compound `C=C1CC[C@@H]2[C@](C)(CO)[C@H](O)CC[C@@]2(C)[C@@H]1C/C=C1/C(=O)OC[C@@H]1O`, the IC50 in data set [1] worked out at 26.5 µM. Also, the viability at 24 h, 100 µM in data set [2] amounted to 65.2%.

Take `C[C@@]1(CO)[C@H](O)CC[C@@]2(C)C(CCC3=CCOC3=O)=C(CO)CC[C@H]12`: the IC50 in data set [1] was more than 100 µM. Further, the viability at 24 h, 100 µM in data set [2] amounted to 91.1%.

For the compound `C=C1CC[C@@H]2[C@](C)(CO)[C@H](O)CC[C@@]2(C)[C@@H]1C/C=C1/C(=O)OC[C@H]1O` [ANDROGRAPHOLIDE], in data set [1], the IC50 is 6.96 µM. In addition, the viability at 24 h, 100 µM in data set [2] came to 49.6%.

Turning to `CN(C)c1ccc(O)c2c1C[C@H]1C[C@H]3[C@H](N(C)C)C(O)=C(C(N)=O)C(=O)[C@@]3(O)C(O)=C1C2=O` [MINOCYCLINE], in data set [1], the IC50 was found to be 34.9 µM. Also, in data set [2], the viability at 24 h, 100 µM amounted to 100%.

As for `C[C@@]12CCC(=O)[C@@](C)(CO)[C@H]1CC=C(CO)[C@H]2CCC1=CCOC1=O`, the IC50 in data set [1] is 71.3 µM. The viability at 24 h, 100 µM in data set [2] was determined as 104%.

Consider `C=C1CC[C@@H]2[C@](C)(CO)CCC[C@@]2(C)[C@@H]1CCC1=CCOC1=O` [ANDROGRAPANIN], for which the IC50 in data set [1] was found to be 11.6 µM. Also, the viability at 24 h, 100 µM in data set [2] is 99.8%.

(Values after ChEMBL document CHEMBL1949553, “Microbial transformation of deoxyandrographolide and their inhibitory activity on LPS-induced NO production in RAW 264.7 macrophages” (Bioorg Med Chem Lett, 2012).)
